Measured values published in US9447156B2, “Methods and compositions for inhibiting neddylation of proteins” (St. Jude Children's Research Hospital, priority 2011, dated 2016).
Residues, ends and D or L forms follow the SMILES beside them. No end group written: not given here. *: point of attachment. For = O=C*

Experiments:
yDcn1^P = biological target: T1, yDcn1^P (Saccharomyces cerevisiae, UniProt Q12395); experiment: ITC binding of Ubc12 peptides to yDcn1^P; set-up: species or system S. cerevisiae; conditions: for ΔH / ΔS: ITC, protein yDcn1^P; for ΔH: change in enthalpy; for ΔS: change in entropy
T1 construct: made in house; host or cells: E. coli
T1 sequence (Q12395 70-269): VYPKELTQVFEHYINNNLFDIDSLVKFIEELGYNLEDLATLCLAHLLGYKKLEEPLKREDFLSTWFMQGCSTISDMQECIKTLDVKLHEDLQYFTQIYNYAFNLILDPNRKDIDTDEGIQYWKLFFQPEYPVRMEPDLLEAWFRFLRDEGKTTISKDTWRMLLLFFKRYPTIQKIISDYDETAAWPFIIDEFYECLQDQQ
Description: (§1) Protein samples were buffer matched by desalting over a NAP-5 column (GE Healthcare) into 50 mM Hepes, 125 mM NaCl, 1 mM BME, pH 7.0 (ITC buffer). Peptides were dissolved by weight to a final concentration of 10 mM in ITC buffer and diluted further in ITC buffer as required for the experiments. […] The peptide ligands (4 mM) were constantly injected (1.5 μl). The interval time between each injection was 3 minutes and the duration of each injection was 3 seconds. For titrations involving hE1 and yE1, proteins were placed into the sample cell at a final concentration of 25 μM at 22° C. Peptide ligands (250 μM) were constantly injected (2.5 μl). The interval time between each injection was three minutes and the duration of each injection was 5 seconds. For hCul1^ctd-Rbx1:hDcn1^P binding, proteins were buffer matched by desalting over a NAP-5 column in 25 mM Tris, 0.1 M NaCl, 1 mM BME, pH 7.6. hCul1^ctd-Rbx1 was placed into the sample cell at a final concentration of 55 μM at 22° C. […]) was constantly injected (2.5 μl). The interval time between each injection was 3 minutes and the duration of each injection was 5 seconds.

hDcn5^P = biological target: T2, hDcn5^P (Homo sapiens, UniProt Q9BTE7); experiment: ITC binding of peptides to hDcn5^P; conditions: Table 29, peptides with amidated carboxy-terminus
T2 construct: human Dcn1 family members 1-5 (also called DCUND1-DCUND5)
T2 sequence (Q9BTE7 47-237): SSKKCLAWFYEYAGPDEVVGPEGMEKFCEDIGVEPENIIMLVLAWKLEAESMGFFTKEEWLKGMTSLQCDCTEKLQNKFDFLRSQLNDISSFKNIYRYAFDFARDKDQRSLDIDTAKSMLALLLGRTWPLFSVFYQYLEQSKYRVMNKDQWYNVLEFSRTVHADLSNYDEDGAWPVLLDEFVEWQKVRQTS
Description: Protein samples were buffer matched by desalting over a NAP-5 column (GE Healthcare) into 50 mM Hepes, 125 mM NaCl, 1 mM BME, pH 7.0 (ITC buffer). Peptides were dissolved by weight to a final concentration of 10 mM in ITC buffer and diluted further in ITC buffer as required for the experiments. Measurements were performed using a MicroCal ITC200. hDcn1^P or yDcn1^P were placed into the sample cell at a final concentration of 400 μM at 18° C. The peptide ligands (4 mM) were constantly injected (1.5 μl). The interval time between each injection was 3 minutes and the duration of each injection was 3 seconds. For titrations involving hE1 and yE1, proteins were placed into the sample cell at a final concentration of 25 μM at 22° C. Peptide ligands (250 μM) were constantly injected (2.5 μl). The interval time between each injection was three minutes and the duration of each injection was 5 seconds. For hCul1^ctd-Rbx1:hDcn1^P binding, proteins were buffer matched by desalting over a NAP-5 column in 25 mM Tris, 0.1 M NaCl, 1 mM BME, pH 7.6. hCul1^ctd-Rbx1 was placed into the sample cell at a final concentration of 55 μM at 22° C. hDcn1^P (550 μM) was constantly injected (2.5 μl). The interval time between each injection was 3 minutes and the duration of each injection was 5 seconds. Obtained spectra were evaluated using Origin (V 7.0) to determine heats of binding and Kd values. […]

[1] = biological target: T3, yE1 for yNedd8 (Ula1Uba3) (Saccharomyces cerevisiae, UniProt Q99344); experiment: ITC binding of Ubc12 peptides to yE1; set-up: species or system S. cerevisiae; conditions: for ΔH / ΔS: ITC, protein yE1; for ΔH: change in enthalpy; for ΔS: change in entropy
T3 construct: made in house; host or cells: E. coli
T3 sequence (Q99344 1-299): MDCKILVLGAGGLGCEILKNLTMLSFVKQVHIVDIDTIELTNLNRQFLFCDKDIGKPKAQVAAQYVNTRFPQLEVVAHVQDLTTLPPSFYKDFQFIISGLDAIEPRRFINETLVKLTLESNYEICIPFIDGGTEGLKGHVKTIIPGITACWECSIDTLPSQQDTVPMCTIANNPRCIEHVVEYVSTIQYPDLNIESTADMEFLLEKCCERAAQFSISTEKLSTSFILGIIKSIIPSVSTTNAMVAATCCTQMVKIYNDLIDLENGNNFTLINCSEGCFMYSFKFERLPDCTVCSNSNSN
T3 sequence (Q12059 1-462 partner): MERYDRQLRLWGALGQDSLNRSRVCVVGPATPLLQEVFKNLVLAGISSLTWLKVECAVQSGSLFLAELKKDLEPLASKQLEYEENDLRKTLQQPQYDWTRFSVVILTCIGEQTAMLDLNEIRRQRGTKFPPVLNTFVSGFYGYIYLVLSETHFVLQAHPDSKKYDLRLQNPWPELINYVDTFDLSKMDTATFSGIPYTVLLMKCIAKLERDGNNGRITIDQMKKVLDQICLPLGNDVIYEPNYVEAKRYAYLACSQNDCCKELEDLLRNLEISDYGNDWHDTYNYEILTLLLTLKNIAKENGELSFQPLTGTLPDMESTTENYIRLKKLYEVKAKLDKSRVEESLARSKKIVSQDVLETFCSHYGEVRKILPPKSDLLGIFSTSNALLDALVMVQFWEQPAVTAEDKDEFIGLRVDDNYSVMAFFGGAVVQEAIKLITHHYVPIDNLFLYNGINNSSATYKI
Description: as §1

hDcn2^P = biological target: T4, hDcn2^P (Homo sapiens, UniProt Q6PH85); experiment: ITC binding of peptides to hDcn2^P; conditions: Example 3
T4 construct: human Dcn1 family members 1-5 (also called DCUND1-DCUND5)
Description: (§2) Protein samples were buffer matched by desalting over a NAP-5 column (GE Healthcare) into 50 mM Hepes, 125 mM NaCl, 1 mM BME, pH 7.0 (ITC buffer). Peptides were dissolved by weight to a final concentration of 10 mM in ITC buffer and diluted further in ITC buffer as required for the experiments. Measurements were performed using a MicroCal ITC200. hDcn1^P or yDcn1^P were placed into the sample cell at a final concentration of 400 μM at 18° C. The peptide ligands (4 mM) were constantly injected (1.5 μl). The interval time between each injection was 3 minutes and the duration of each injection was 3 seconds. For titrations involving hE1 and yE1, proteins were placed into the sample cell at a final concentration of 25 μM at 22° C. Peptide ligands (250 μM) were constantly injected (2.5 μl). The interval time between each injection was three minutes and the duration of each injection was 5 seconds. For hCul1^ctd-Rbx1:hDcn1^P binding, proteins were buffer matched by desalting over a NAP-5 column in 25 mM Tris, 0.1 M NaCl, 1 mM BME, pH 7.6. hCul1^ctd-Rbx1 was placed into the sample cell at a final concentration of 55 μM at 22° C. hDcn1^P (550 μM) was constantly injected (2.5 μl). The interval time between each injection was 3 minutes and the duration of each injection was 5 seconds. Obtained spectra were evaluated using Origin (V 7.0) to determine heats of binding and Kd values.
(§3) The affinity of various peptides for hDcn1^P, hDcn2^P, hDcn3^P, hDcn4^P, and hDcn5^P was tested using isothermal titration calorimetry as described in Example 1 and is provided in Table 29.

hDcn1^P = biological target: T5, hDcn1^P (Homo sapiens, UniProt Q96GG9); experiment: ITC binding of Ubc12/Ube2f peptides to hDcn1^P; conditions: Example 3
T5 construct: hDcn1^P corresponds to residues 62 to the C-terminal residue 259 of hDcn1; GST (cleaved yes); made in house; host or cells: E. coli BL21(DE3)Gold
Description: as §2, §3

hDcn3^P = biological target: T6, hDcn3^P (Homo sapiens, UniProt Q8IWE4); experiment: ITC binding of peptides to hDcn3^P
T6 sequence (Q8IWE4 86-304): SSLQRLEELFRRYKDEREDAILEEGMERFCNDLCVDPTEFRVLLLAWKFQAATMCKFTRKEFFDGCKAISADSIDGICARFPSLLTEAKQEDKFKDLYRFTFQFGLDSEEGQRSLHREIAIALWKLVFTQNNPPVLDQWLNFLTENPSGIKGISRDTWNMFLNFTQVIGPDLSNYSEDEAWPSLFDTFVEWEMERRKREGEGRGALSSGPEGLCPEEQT
Description: as §2, §3

T4 sequence (Q6PH85 62-259): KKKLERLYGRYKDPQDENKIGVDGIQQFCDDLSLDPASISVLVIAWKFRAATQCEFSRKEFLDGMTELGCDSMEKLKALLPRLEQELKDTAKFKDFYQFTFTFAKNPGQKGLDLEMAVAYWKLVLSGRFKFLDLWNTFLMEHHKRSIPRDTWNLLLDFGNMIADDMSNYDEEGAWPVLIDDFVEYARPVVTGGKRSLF
T5 sequence (Q96GG9 62-259): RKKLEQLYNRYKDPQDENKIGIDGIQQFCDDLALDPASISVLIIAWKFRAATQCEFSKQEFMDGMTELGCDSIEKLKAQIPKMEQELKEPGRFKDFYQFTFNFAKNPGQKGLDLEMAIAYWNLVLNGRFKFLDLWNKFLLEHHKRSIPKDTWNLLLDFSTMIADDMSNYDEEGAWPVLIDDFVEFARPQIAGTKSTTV

Compound: CC[C@H](C)[C@H](NC(=O)[C@H](CO)NC(=O)[C@H](CO)NC(=O)[C@H](CO)NC(=O)[C@H](CC(N)=O)NC(=O)[C@H](CCC(=O)O)NC(=O)[C@H](CC(N)=O)NC(=O)[C@H](CCC(=O)O)NC(=O)[C@H](CCCCN)NC(=O)[C@H](CCC(N)=O)NC(=O)[C@H](CCCCN)NC(=O)[C@H](CCCCN)NC(=O)[C@H](CCCCN)NC(=O)[C@H](CCC(N)=O)NC(=O)[C@H](CC(C)C)NC(=O)[C@H](CCC(N)=O)NC(=O)[C@H](CCCNC(=N)N)NC(=O)[C@H](CC(C)C)NC(=O)[C@H](CCCCN)NC(=O)[C@H](CC(C)C)NC(=O)[C@H](CCSC)NC=O)C(=O)N[C@@H](CCC(N)=O)C(=O)N1CCC[C@H]1C(=O)N[C@@H](CC(N)=O)C(N)=O [Formyl-yUbc12^1-24] (For-MLKLRQLQKKKQKENENSSSIQPN-NH2)
- ΔH (yDcn1^P): 2,824 cal/mol
- ΔS (yDcn1^P): 33.4 cal/mol/deg

Compound: CC[C@H](C)[C@H](NC(=O)[C@H](CCSC)NC(C)=O)C(=O)N[C@@H](CCCCN)C(=O)N[C@@H](CC(C)C)C(=O)N[C@@H](Cc1ccccc1)C(=O)N[C@@H](CO)C(=O)N[C@@H](CC(C)C)C(=O)N[C@@H](CCCCN)C(=O)N[C@@H](CCC(N)=O)C(=O)N[C@@H](CCC(N)=O)C(=O)N[C@@H](CCCCN)C(=O)N[C@@H](CCCCN)C(N)=O [hUbc12^Ac1−12]
- Kd (hDcn5^P): > 30000 nM

Compound: Ac-LKLRQLQKKKQKENENSSSIQPN-NH2 [Acetyl-yUbc12^2-24]
- Kd (yDcn1^P): > 37000 nM
- ΔH (yDcn1^P): 3,761 cal/mol
- ΔS (yDcn1^P): 33.4 cal/mol/deg
- Kd [1]: 1580 nM
- ΔH [1]: −9,625 cal/mol
- ΔS [1]: −7.21 cal/mol/deg

Compound: Ac-MLKLRQLQKKKQKENENSSSIQPN-NH2 [yUbc12Ac1-24]
- ΔH (yDcn1^P): 4,145 cal/mol
- ΔS (yDcn1^P): 43.6 cal/mol/deg
- affinity for Dcn2 (comparison in words) (hDcn2^P): greatest affinity
- affinity for Dcn1 (comparison in words) (hDcn1^P): greatest affinity
- Kd [1]: 16 nM
- ΔH [1]: −11,260 cal/mol
- ΔS [1]: −3.8 cal/mol/deg

Compound: H-MLKLRQLQKKKQKENENSSSIQPN-NH2 [yUbc12^1-24]
- Kd (yDcn1^P): > 40000 nM
- ΔH (yDcn1^P): 3,777 cal/mol
- ΔS (yDcn1^P): 33.4 cal/mol/deg
- Kd [1]: 70 nM
- ΔH [1]: −8,571 cal/mol
- ΔS [1]: 2.65 cal/mol/deg

Compound: MLTLASKLKRDDGLKGSRTAATASD-NH2 [hUbe2f^1−25]
- Kd (hDcn3^P; Table 29, peptides with amidated carboxy-terminus): > 400000 nM

Compound: hUbc12Ac1-26: N-terminally acetylated peptide of residues 1-26 of human Ubc12 (Ac-MIKLFSLKQQKKEEESAGGTKGSSKK-NH2)
- affinity for Dcn2 (comparison in words) (hDcn2^P): greatest affinity
- affinity for Dcn1 (comparison in words) (hDcn1^P): greatest affinity

Compound: hUbe2fAcl-25: N-terminally acetylated human Ube2f residues 1-25 (Ac-MLTLASKLKRDDGLKGSRTAATASD-NH2)
- affinity for Dcn3 (comparison in words) (hDcn3^P; Example 3): greatest affinity
- binding specificity for Dcn3 over other co-E3 proteins (hDcn3^P; Example 3): fairly specific
